Measurements as given in patent publication US20260137711A1, “COMBINATION THERAPY FOR CANCER” (NATIONAL UNIVERSITY OF IRELAND, GALWAY, priority 2022, published 2026).

Columns and labels:
MCF10A cells = test: Long-term cell proliferation assay, crystal violet staining; format: cell-based, human; details: 7 days
Method: (a and b) MCF10A cells were plated at equal low density and then either mock treated or treated with 31 nM BI-1347, in the presence or absence of XL413 at a doses of (a) 1.25 μM or (b) 10 μM over a 7 day period. Representative images of crystal violet-stained cells are shown alongside quantitation of crystal violet intensity normalised to the untreated control.
Briefly, MCF10A cells were mock-treated or treated in the continued presence of a dual-specificity CDK8/CDK19 inhibitor, BI-1347, in the presence or absence of XL413 at two different concentrations (1.25 μM and 10 μM) for a 7-day period. Relative cell proliferation was estimated by staining cells with crystal violet and measuring staining intensities. […] Importantly the addition of BI-1347 to XL413 caused a further reduction in cell number with staining intensity decreasing by 70% and 95% respectively.
MCF10A cells were seeded at 4,000 cells per well of a 6 well plate and after 24 hours were treated with inhibitors before being incubated for 7 days at 37° C. with 5% CO2. Media was removed from the cells which were then washed with PBS and air dried before being fixed with 100% methanol for 1 hour. Following removal of methanol the plates were air-dried, stained with crystal violet staining solution (0.2% crystal violet, 25% methanol) for 1 hour at room temperature, washed with ddH2O and air-dried. Plates were scanned using a HP Scanjet 4050, to generate images of crystal violet stained cells, and crystal violet staining intensity was acquired using the Odyssey infrared imaging system and Image Studio software (LI-COR Biosciences).

MCF10A EditR cells = test: Pooled genome-wide CRISPR/Cas9 screen with XL413 (cell proliferation, sgRNA abundance, MAGeCK beta scores); format: cell-based, human; details: for XL413 beta score: 1.25 μM XL413, day 0 to day 24; for Differential beta score (Treatment − Control): XL413-treated minus untreated
Method: Supplemental FIG. 1: CRISPR/Cas9 screen: Cell proliferation curves, summary of sgRNA coverage, and genes of interest identified (a-c) Proliferation curves of MCF10A EditR cells expressing sgRNAs from CRISPR library modules I, II and III in the absence (untreated) or presence of 1.25 μM XL413. Data is from three independent counts of each sample ±standard deviation (SD). (d) DNA extracted from samples of the CRISPR/Cas9 screen, which were harvested on day 0 and after 20 or 24 days of growth in the absence (untreated) or presence of 1.25 μM XL413, respectively, was analysed by next generation sequencing. Sequence data was mapped to a CELLECTA genome-wide sgRNA reference library using the MAGeCKFlute pipeline. (d) The table summarises the total and missing number of sgRNAs, the calculated % sgRNA coverage and the number of missing genes.
A genome-wide CRIPSR/Cas9 loss of function screen identifies genes that affect proliferation rate in response to a CDC7 inhibitor In order to identify genes that change the rate of proliferation when DNA synthesis is mildly limited by CDC7 inhibition, we performed a CRISPR/Cas9 genome-wide knockout screen as outlined in FIG. 1a. Briefly, MCF10A EditR cells that stably express Cas9 were transduced with a lentiviral-sgRNA library targeting approximately 19,000 coding genes and then were either untreated or treated with 1.25 μM of selective ATP competitive CDC7 inhibitor, XL413 (Koltun et al., 2012). […] Next generation sequencing was then used to determine sgRNA abundance at day 0, day 20 untreated and day 24 XL413 treated cells. […] CRISPR/Cas9-mediated loss of function of genes involved in supporting proliferation in untreated cells or in response to CDC7 inhibition is expected to result in a decreased relative abundance of the corresponding sgRNAs in the cell population. […] When the genes were ranked according to the magnitude of the effect, CDK8, a gene that expresses a component of the CDK8/CDK19-CCNC-MED12-MED 13 mediator complex kinase-module (Dannappel et al., 2019; Fant and Taatjes, 2019; Menzl et al., 2019), came out as the top hit (FIG. 1b and Table 1, ranked 19012 out of 19012 genes).
MCF10A EditR cells (120×10^6 per module) were transduced with individual modules (Modules I, II and III) in the presence of 5 µg/ml polybrene at a Multiplicity of Infection (MoI) of 0.4 achieving ˜600-fold guide representation. After 24 hours, transduced cells were harvested, replated and selected with puromycin ([…]) for 6 days. Puromycin resistant cells were harvested and a sample of ˜30×10^6 cells taken for analysis by next generation sequencing (NGS) at the start of the screen (day 0). The remaining puromycin resistant cells from each module were cultured independently from each other in untreated and XL413 treated ([…]) experimental branches. Throughout the screen cell proliferation and viability were determined by cell counting on a LunaII automated cell counter (Logos Biosystems) using trypan blue exclusion. Cells were cultured, harvested, reseeded and retreated every 4 days in order to maintain ˜600-fold guide representation. Finally at day 20 for the untreated branch and at day 24 for the XL413-treated branche, cells were harvested and a sample of ˜30×10^6 cells taken for analysis by NGS.
FASTQ files obtained by NGS were analysed using the MAGeCKFlute pipeline (Wang et al., 2019) as outlined below. MAGeCK was used to perform adaptor trimming, mapping of trimmed sgRNAs and associated sequencing reads to the CELLECTA sgRNA reference library, and a quality control assessment of the sequencing quality and screen data. Following quality control inspection, sgRNA read count data from the day 0 vs day 20 untreated and day 0 vs day 24 XL413-treated (1.25 μM) conditions were modelled using a negative-binomial distribution by MAGeCK-MLE to calculate a beta score for each targeted gene. Negative control sgRNAs in the CELLECTA library were used by MAGeCK-MLE to normalize the read counts between samples. […]

Cl.O=c1[nH]c([C@@H]2CCCN2)nc2c1oc1ccc(Cl)cc12 [XL413]
relative intensity reduction (crystal violet) (MCF10A cells; 1.25 μM XL413 alone): ~15% | relative intensity reduction (crystal violet) (MCF10A cells; 10 μM XL413 alone): 70% | cell proliferation over the course of the screen (MCF10A EditR cells; 1.25 μM XL413, cells expressing sgRNA library): only mildly suppressed | XL413 beta score (MCF10A EditR cells; gene CCNC targeted by sgRNAs): −1.0759 | Differential beta score (Treatment − Control) (MCF10A EditR cells; gene CCNC targeted by sgRNAs): −0.3602 | XL413 beta score (MCF10A EditR cells; gene CDK8 targeted by sgRNAs): −1.6094 | Differential beta score (Treatment − Control) (MCF10A EditR cells; gene CDK8 targeted by sgRNAs): −1.4391 | XL413 beta score (MCF10A EditR cells; gene CDK19 targeted by sgRNAs): −0.2393 | Differential beta score (Treatment − Control) (MCF10A EditR cells; gene CDK19 targeted by sgRNAs): 0.0034 | XL413 beta score (MCF10A EditR cells; gene MED12 targeted by sgRNAs): −0.8276 | Differential beta score (Treatment − Control) (MCF10A EditR cells; gene MED12 targeted by sgRNAs): 0.0928 | XL413 beta score (MCF10A EditR cells; gene MED13 targeted by sgRNAs): 0.0939 | Differential beta score (Treatment − Control) (MCF10A EditR cells; gene MED13 targeted by sgRNAs): 0.0062 | XL413 beta score (MCF10A EditR cells; gene RIF1 targeted by sgRNAs): −0.0162 | Differential beta score (Treatment − Control) (MCF10A EditR cells; gene RIF1 targeted by sgRNAs): 0.7442
